Data on 22 compounds can be found in US20250122183A1 (Pfizer Inc., priority 2023, published 2025).

Structures are written as SMILES.

What all share (format): biochemical
For assay [1], the target named is KAT6A Full length enzyme (Homo sapiens (Human), UniProt Q92794). Kind of assay: KAT6A assay (SAMDI-MS acetylation of H3 1-21 peptide). The following applies: Morrison equation fit; replicate number in parentheses; read-out: KAT6A Ki (nM) (replicate number).
Assay [2] addresses KAT7+JADE1+EAF6+ING5 4 protein complex (Homo sapiens (Human), UniProt O95251). Kind of assay: KAT7 JADE1 assay (SAMDI-MS acetylation of H3 1-21 peptide). The conditions noted are these: Morrison equation fit; replicate number in parentheses; read-out: KAT7 JADE1 Ki (nM) (replicate number).
Assay [3] addresses KAT8 Full length enzyme (Homo sapiens (Human), UniProt Q9H7Z6). Kind of assay: KAT8 assay (SAMDI-MS acetylation of H3 1-21 peptide). The following applies: Morrison equation fit; replicate number in parentheses; read-out: KAT8 Ki (nM) (replicate number).
Assay [4] deals with KAT5 Full length enzyme (Homo sapiens (Human), UniProt Q92993). Kind of assay: KAT5 assay (SAMDI-MS acetylation of H4 1-21 peptide). The conditions noted are these: Morrison equation fit; replicate number in parentheses; read-out: KAT5 Ki (nM) (replicate number).
KAT5 Full length enzyme, sequence (Q92993 whole entry): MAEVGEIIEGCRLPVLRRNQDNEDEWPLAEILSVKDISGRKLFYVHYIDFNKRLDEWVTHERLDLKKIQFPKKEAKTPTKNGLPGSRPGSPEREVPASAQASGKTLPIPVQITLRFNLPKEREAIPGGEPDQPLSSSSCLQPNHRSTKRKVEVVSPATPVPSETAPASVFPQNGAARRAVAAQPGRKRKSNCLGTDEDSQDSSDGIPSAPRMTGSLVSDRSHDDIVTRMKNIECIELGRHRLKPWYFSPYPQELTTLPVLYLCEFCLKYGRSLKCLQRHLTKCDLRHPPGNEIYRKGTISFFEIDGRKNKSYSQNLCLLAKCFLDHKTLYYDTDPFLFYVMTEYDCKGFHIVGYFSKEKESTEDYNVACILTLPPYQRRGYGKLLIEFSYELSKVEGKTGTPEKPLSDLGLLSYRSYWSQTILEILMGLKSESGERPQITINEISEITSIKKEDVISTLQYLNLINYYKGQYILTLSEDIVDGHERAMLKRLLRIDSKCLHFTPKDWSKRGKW

KAT6A Full length enzyme, sequence (Q92794 other isoform, or with tags, fused parts or gaps): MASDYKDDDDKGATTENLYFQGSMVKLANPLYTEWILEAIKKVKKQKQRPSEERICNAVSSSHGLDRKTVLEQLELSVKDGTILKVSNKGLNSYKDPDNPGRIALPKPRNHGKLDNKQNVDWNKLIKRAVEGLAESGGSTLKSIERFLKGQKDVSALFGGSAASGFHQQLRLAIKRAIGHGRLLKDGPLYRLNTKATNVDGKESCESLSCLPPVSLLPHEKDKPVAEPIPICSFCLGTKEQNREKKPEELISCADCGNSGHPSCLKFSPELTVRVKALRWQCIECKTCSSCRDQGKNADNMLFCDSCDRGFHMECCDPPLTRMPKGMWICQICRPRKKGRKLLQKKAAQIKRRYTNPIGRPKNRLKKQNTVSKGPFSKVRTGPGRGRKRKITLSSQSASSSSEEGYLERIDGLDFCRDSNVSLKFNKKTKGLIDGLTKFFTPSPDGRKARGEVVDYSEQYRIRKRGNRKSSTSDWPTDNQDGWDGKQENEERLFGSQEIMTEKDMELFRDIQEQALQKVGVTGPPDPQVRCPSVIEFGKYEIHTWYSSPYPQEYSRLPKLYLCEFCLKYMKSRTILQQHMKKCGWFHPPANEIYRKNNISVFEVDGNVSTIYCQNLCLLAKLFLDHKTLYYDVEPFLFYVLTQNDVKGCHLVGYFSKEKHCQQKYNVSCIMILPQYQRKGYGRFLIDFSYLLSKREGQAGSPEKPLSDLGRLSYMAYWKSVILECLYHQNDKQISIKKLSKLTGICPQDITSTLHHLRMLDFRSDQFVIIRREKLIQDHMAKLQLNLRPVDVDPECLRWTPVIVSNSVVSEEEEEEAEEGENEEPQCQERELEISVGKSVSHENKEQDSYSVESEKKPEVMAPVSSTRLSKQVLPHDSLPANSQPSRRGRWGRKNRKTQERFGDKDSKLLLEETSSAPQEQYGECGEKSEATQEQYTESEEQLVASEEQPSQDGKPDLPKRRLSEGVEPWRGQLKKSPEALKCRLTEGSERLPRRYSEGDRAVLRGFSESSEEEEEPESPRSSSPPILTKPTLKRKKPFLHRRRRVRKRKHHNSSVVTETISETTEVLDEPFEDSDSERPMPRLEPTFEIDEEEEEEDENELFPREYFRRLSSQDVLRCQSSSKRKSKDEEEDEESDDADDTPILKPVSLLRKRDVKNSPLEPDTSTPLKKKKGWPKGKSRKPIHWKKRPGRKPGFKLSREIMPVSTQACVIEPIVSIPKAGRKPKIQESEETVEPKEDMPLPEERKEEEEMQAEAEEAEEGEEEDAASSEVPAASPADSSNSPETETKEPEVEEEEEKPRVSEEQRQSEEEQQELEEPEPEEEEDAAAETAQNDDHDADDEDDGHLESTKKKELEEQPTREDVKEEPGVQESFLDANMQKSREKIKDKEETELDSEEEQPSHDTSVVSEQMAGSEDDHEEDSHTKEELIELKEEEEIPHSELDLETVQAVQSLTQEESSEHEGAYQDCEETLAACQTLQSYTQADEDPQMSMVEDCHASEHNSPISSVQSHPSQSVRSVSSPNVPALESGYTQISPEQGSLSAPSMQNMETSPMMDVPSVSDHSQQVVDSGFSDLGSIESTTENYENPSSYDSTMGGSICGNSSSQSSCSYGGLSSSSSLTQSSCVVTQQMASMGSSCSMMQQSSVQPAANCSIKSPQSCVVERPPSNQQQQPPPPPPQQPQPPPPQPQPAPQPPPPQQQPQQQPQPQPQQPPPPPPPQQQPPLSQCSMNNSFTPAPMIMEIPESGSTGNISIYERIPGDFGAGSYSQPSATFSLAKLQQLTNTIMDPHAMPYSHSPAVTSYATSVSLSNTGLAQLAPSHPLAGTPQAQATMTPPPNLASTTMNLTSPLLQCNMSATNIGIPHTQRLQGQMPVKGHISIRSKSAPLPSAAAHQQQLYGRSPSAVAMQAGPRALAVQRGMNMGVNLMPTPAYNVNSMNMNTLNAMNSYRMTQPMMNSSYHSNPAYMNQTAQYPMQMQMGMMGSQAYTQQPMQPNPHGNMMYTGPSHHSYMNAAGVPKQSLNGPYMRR
KAT8 Full length enzyme, sequence (Q9H7Z6 whole entry): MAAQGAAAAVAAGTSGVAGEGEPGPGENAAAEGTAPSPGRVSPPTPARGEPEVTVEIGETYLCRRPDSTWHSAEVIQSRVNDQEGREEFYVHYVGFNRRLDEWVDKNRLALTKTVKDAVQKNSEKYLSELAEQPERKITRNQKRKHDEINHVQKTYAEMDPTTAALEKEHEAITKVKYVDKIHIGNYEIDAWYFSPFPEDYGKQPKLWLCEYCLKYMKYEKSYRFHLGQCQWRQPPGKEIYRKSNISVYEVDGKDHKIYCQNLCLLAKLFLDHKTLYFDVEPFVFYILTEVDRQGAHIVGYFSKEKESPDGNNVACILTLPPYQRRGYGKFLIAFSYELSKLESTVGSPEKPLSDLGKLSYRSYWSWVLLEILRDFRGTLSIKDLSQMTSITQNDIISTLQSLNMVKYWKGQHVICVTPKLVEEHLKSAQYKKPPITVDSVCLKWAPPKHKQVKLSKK

Consider `COc1cc2c(NS(=O)(=O)c3c(OC)cc(-c4ccn(C)n4)cc3OC)noc2cc1Nc1cc(C2CC2C)n[nH]1` (single isomer, unassigned) [Example 242, 2,6-dimethoxy-N-(5-methoxy-6-{[3-(2-methylcyclopropyl)-1 H-pyrazol-5-yl]amino}-1,2-benzoxazol-3-yl)-4-(1-methyl-1H-pyrazol-3-yl)benzene-1-sulfonamide], for which the Ki stood at 0.9 nM in assay [1], 9.2 nM in assay [2], 439 nM in assay [3] and 34 nM in assay [4].
On to `COc1cc2c(NS(=O)(=O)c3c(OC)cc(-c4cccnc4)cc3OC)noc2cc1Nc1cc(C2CC2)n[nH]1` [Example 07, N-{6-[(3-cyclopropyl-1H-pyrazol-5-yl)amino]-5-methoxy-1,2-benzoxazol-3-yl}-2,6-dimethoxy-4-(pyridin-3-yl)benzene-1-sulfonamide], for which the Ki in assay [1] was 0.6 nM; in assay [2], 4.2 nM; in assay [3], 457 nM; in assay [4], 53.6 nM.
Consider `COc1cc2c(NS(=O)(=O)c3c(OC)cc(-c4ncco4)cc3OC)noc2cc1Nc1cc(C2CC2)n[nH]1` [Example 08, N-{6-[(3-cyclopropyl-1H-pyrazol-5-yl)amino]-5-methoxy-1,2-benzoxazol-3-yl}-2,6-dimethoxy-4-(1,3-oxazol-2-yl)benzene-1-sulfonamide], for which the Ki came to 1.2 nM in assay [1], 12.8 nM in assay [2], 1620 nM in assay [3] and 46.9 nM in assay [4].
For `COc1cccc(OC)c1S(=O)(=O)Nc1noc2cc(NC3CCC3)cc(OC)c12` [Example 10, N-[6-(cyclobutylamino)-4-methoxy-1,2-benzoxazol-3-yl]-2,6-dimethoxybenzene-1-sulfonamide], in that order: 3.1 nM, 727 nM, 11500 nM and 11800 nM.
As for `COc1cccc(OC)c1S(=O)(=O)Nc1noc2cc(N[C@H]3CCOC3)cc(OC)c12` [Example 14, 2,6-dimethoxy-N-(4-methoxy-6-{[(3S)-oxolan-3-yl]amino}-1,2-benzoxazol-3-yl)benzene-1-sulfonamide], the Ki in assay [1] is 10.1 nM; in assay [2], over 2340 nM; in assay [3] it was over 16300 nM; in assay [4], 44900 nM.
Take `COc1cccc(OC)c1S(=O)(=O)Nc1noc2cc(Nc3ccon3)cc(OC)c12` [Example 16, 2,6-dimethoxy-N-{4-methoxy-6-[(1,2-oxazol-3-yl)amino]-1,2-benzoxazol-3-yl}benzene-1-sulfonamide]: the Ki in assay [1] was 0.2 nM; in assay [2], 702 nM; in assay [3] it was 2250 nM; in assay [4], 1650 nM.
The matching figures for `COc1cccc(OC)c1S(=O)(=O)Nc1noc2cc(Nc3ccccn3)cc(OC)c12` [Example 18, 2,6-dimethoxy-N-{4-methoxy-6-[(pyridin-2-yl)amino]-1,2-benzoxazol-3-yl}benzene-1-sulfonamide]: 1 nM, 245 nM, 5960 nM and 5420 nM.
For `COc1cccc(OC)c1S(=O)(=O)Nc1noc2cc(Nc3cccnn3)cc(OC)c12` [Example 19, 2,6-dimethoxy-N-{4-methoxy-6-[(pyridazin-3-yl)amino]-1,2-benzoxazol-3-yl}benzene-1-sulfonamide], the inhibition constant Ki was 30.8 nM in assay [1], 516 nM in assay [2], over 16300 nM in assay [3] and 15700 nM in assay [4].
For `COc1cccc(OC)c1S(=O)(=O)Nc1noc2cc(Nc3ncccn3)cc(OC)c12` [Example 20, 2,6-dimethoxy-N-{4-methoxy-6-[(pyrimidin-2-yl)amino]-1,2-benzoxazol-3-yl}benzene-1-sulfonamide], the Ki amounted to 5.3 nM in assay [1], 1540 nM in assay [2], 14600 nM in assay [3] and 9380 nM in assay [4].
For `COc1cc2c(NS(=O)(=O)c3c(OC)cccc3OC)noc2cc1Nc1cc(C(C)(F)F)n[nH]1` [Example 66, N-(6-{[3-(1,1-difluoroethyl)-1H-pyrazol-5-yl]amino}-5-methoxy-1,2-benzoxazol-3-yl)-2,6-dimethoxybenzene-1-sulfonamide], in that order: 10.7 nM, 130 nM, over 13000 nM and 871 nM.
For `CCOc1cc(C)c(F)cc1S(=O)(=O)Nc1noc2cc(Nc3cc(C4CC4)n[nH]3)c(F)c(OC)c12` [Example 70, N-{6-[(3-cyclopropyl-1H-pyrazol-5-yl)amino]-5-fluoro-4-methoxy-1,2-benzoxazol-3-yl}-2-ethoxy-5-fluoro-4-methylbenzene-1-sulfonamide], in that order: 1.9 nM, 16.4 nM, 3880 nM and 280 nM.
`CCc1cc(Nc2cc3onc(NS(=O)(=O)c4c(OC)cccc4OC)c3cc2OC)nn1C` [Example 73, N-{6-[(5-ethyl-1-methyl-1H-pyrazol-3-yl)amino]-5-methoxy-1,2-benzoxazol-3-yl}-2,6-dimethoxybenzene-1-sulfonamide]: the Ki in assay [1] was determined as 0.7 nM; in assay [2], 31.3 nM; in assay [3], 4330 nM; in assay [4], 287 nM.
Consider `CCn1nc(Nc2cc3onc(NS(=O)(=O)c4c(OC)cccc4OC)c3cc2OC)cc1C` [Example 74, N-{6-[(1-ethyl-5-methyl-1H-pyrazol-3-yl)amino]-5-methoxy-1,2-benzoxazol-3-yl}-2,6-dimethoxybenzene-1-sulfonamide], for which the Ki in assay [1] was 5.2 nM; in assay [2], 483 nM; in assay [3] it was over 13000 nM; in assay [4], 2160 nM.
For `CCn1cnc(Nc2cc3onc(NS(=O)(=O)c4c(OC)cccc4OC)c3cc2OC)c1` [Example 75, N-{6-[(1-ethyl-1H-imidazol-4-yl)amino]-5-methoxy-1,2-benzoxazol-3-yl}-2,6-dimethoxybenzene-1-sulfonamide], in that order: 22.3 nM, 501 nM, over 11200 nM and 2210 nM.
`CCOc1cc(F)ccc1S(=O)(=O)Nc1noc2cc(Nc3cc(C4CC4)n[nH]3)c(F)c(OC)c12` [Example 76, N-{6-[(3-cyclopropyl-1H-pyrazol-5-yl)amino]-5-fluoro-4-methoxy-1,2-benzoxazol-3-yl}-2-ethoxy-4-fluorobenzene-1-sulfonamide]: the Ki in assay [1] was 11.1 nM; in assay [2], 92 nM; in assay [3], over 13000 nM; in assay [4], 1160 nM.
As for `COc1cccc(OC2CC2)c1S(=O)(=O)Nc1noc2cc(Nc3cc(C4CC4)n[nH]3)c(F)c(OC)c12` [Example 80, 2-(cyclopropyloxy)-N-{6-[(5-cyclopropyl-1H-pyrazol-3-yl)amino]-5-fluoro-4-methoxy-1,2-benzoxazol-3-yl}-6-methoxybenzene-1-sulfonamide], the Ki in assay [1] is 3.8 nM; in assay [2] it was 32.3 nM; in assay [3], 7760 nM; in assay [4], 1450 nM.
For `COc1cccc(F)c1S(=O)(=O)Nc1noc2cc(Nc3cc(C4CC4)n[nH]3)c(F)c(OC)c12` [Example 81, N-{6-[(3-cyclopropyl-1H-pyrazol-5-yl)amino]-5-fluoro-4-methoxy-1,2-benzoxazol-3-yl}-2-fluoro-6-methoxybenzene-1-sulfonamide], the Ki in assay [1] is 3.5 nM; in assay [2], 31.6 nM; in assay [3], over 13000 nM; in assay [4], 336 nM.
In the case of `COc1cc2c(NS(=O)(=O)c3c(OC)cccc3OC)noc2cc1Nc1cc(C2CCCC2)n[nH]1` [Example 85, N-{6-[(3-cyclopentyl-1H-pyrazol-5-yl)amino]-5-methoxy-1,2-benzoxazol-3-yl}-2,6-dimethoxybenzene-1-sulfonamide], the Ki in assay [1] was 4.7 nM; in assay [2], 33.4 nM; in assay [3], 3380 nM; in assay [4], 225 nM.
On to `COc1cc2c(NS(=O)(=O)c3c(OC)cccc3OC)noc2cc1Nc1cc(C(C)CCO)[nH]n1` (stereo not shown) [Example 88, N-(6-{[5-(4-hydroxybutan-2-yl)-1H-pyrazol-3-yl]amino}-5-methoxy-1,2-benzoxazol-3-yl)-2,6-dimethoxybenzene-1-sulfonamide], for which the Ki was 27 nM in assay [1], 378 nM in assay [2], over 13000 nM in assay [3] and 6020 nM in assay [4].
In the case of `COc1cc2c(NS(=O)(=O)c3c(OC)cccc3OC)noc2cc1Nc1cc(Cl)n[nH]1` [Example 92, N-{6-[(3-chloro-1H-pyrazol-5-yl)amino]-5-methoxy-1,2-benzoxazol-3-yl}-2,6-dimethoxybenzene-1-sulfonamide], the Ki is 1.3 nM in assay [1], 219 nM in assay [2], 2100 nM in assay [3] and 867 nM in assay [4].
For `COc1cc2c(NS(=O)(=O)c3c(OC)cccc3OC)noc2cc1Nc1cc(C2(C)CC2)n[nH]1` [Example 94, 2,6-dimethoxy-N-(5-methoxy-6-{[3-(1-methylcyclopropyl)-1H-pyrazol-5-yl]amino}-1,2-benzoxazol-3-yl)benzene-1-sulfonamide], the Ki in assay [1] was 6.3 nM; in assay [2] it was 58.1 nM; in assay [3], 5740 nM; in assay [4] it was 193 nM.
For the compound `COc1cc2c(NS(=O)(=O)c3cc4ccccc4cc3OC)noc2cc1Nc1cc(C2CC2)n[nH]1` [Example 95, N-{6-[(3-cyclopropyl-1H-pyrazol-5-yl)amino]-5-methoxy-1,2-benzoxazol-3-yl}-3-methoxynaphthalene-2-sulfonamide], the Ki in assay [1] was determined as 0.1 nM; in assay [2] it was 0.3 nM; in assay [3] it was 77 nM; in assay [4] it was 18.1 nM.
